Assay results from US8952054B2, “Small molecule inhibitors of MUC1 and methods of identifying the same” (Dana-Farber Cancer Institute, Inc., priority 2010, dated 2015).

Columns and labels:
His-MUC1-CD = biological target: T1, His-MUC1-CD (Homo sapiens, UniProt P15941); experiment: BIAcore binding of peptides to immobilized His-MUC1-CD
T1 construct: made in house
T1 sequence (P15941 1184-1255): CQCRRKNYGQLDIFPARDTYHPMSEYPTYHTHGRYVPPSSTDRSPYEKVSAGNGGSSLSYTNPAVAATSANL
Method: FIGS. 1A-D. MUC1/CQC peptide blocks MUC1 oligomerization. (FIG. 1A) Schematic representation of the MUC1-C subunit and the 72-amino acid sequence of MUC1-CD (SEQ ID NO: 1) are shown. The N-terminal 15 amino acids (shaded sequence) MUC1/CQC (SEQ ID NO: 10) and mutated MUC1/AQA (SEQ ID NO: 11) peptides were synthesized with the poly-dArg transduction domain. (FIG. 1B) His-MUC1-CD (1.4 mg/ml) was immobilized on a sensor chip in a BIAcore. MUC1/CQC was injected over the chip at 10 μM. Raw binding data were analyzed by BIAevaluation software version 3.0 and fit to a 1:1 Languir binding model. (FIG. 1C) Purified His-MUC1-CD (1.5 mg/ml) was incubated with PBS, 200 μM MUC1/CQC or 200 μM MUC1/AQA for 1 h at room temperature. The proteins were separated in a non-reducing SDS-polyacrylamide gel and analyzed by immunoblotting with anti-MUC1-C. (FIG. 1D) 293 cells were transiently transfected to express an empty vector or GFP-MUC1-CD and Flag-MUC1-CD. At 48 h after transfection, the cells were treated with 5 μM MUC1/CQC or MUC1/AQA for 3 d. The cells were then harvested for immunoblotting with anti-MUC1-C (left panel). […]
The MUC1 cytoplasmic domain (MUC1-CD) contains a CQC motif that is necessary for the formation of oligomers and nuclear localization (Leng et al., 2007). […] Purified His-tagged MUC1-CD forms oligomers as detected by electrophoresis in polyacrylamide gels (FIG. 1C). […]

[1] = system: MUC1-expressing cancer cells; experiment: Secondary screen against MUC1-expressing cancer cells in vitro; format: cell-based; details: legend: ZR-75-1 breast carcinoma cells, 2 days, anti-MUC1-C immunoblot
Method: ZR-75-1 breast carcinoma cells were treated with […] Kaempterol for 2 days. Total cell lysates were then analyzed by immunoblotting with anti-MUC1-C antibody (FIG. 17A) or with anti-Actin antibodies (FIG. 17B).
Initial screens were performed in the presence of compounds at a concentration of 100 μM.

MUC1 = MUC1 mRNA (qRT-PCR) and MUC1-C protein (immunoblot) in MCF-7 cells; format: cell-based, human; details: for MUC1 mRNA levels: MCF-7, 75 μM, 3 d, qRT-PCR; for MUC1-C protein in the nucleus / MUC1-C protein in whole cell lysates: MCF-7, 3 days
Method: FIGS. 14A-E—Apigenin suppresses MUC1 expression in MCF-7 cells. (FIG. 14A) MCF-7 cells were treated with DMSO vehicle, 75 μM apigenin or 75 μM baicalein for 3 d. Total RNA was assayed for MUC1 mRNA levels by qRTPCR. The results (mean+SD of 3 determinations) are expressed as relative MUC1 mRNA levels as compared to that obtained in cells treated with DMSO. (FIGS. 14B-C) MCF-7 cells were treated with the indicated concentrations of apigenin and baicalein for 3 days. Nuclear (FIG. 14B) and whole cell lysates (FIG. 14C) were immunoblotted with the indicated antibodies. D. Lysates from MCF-7 cells were infected to stably express a control lentivirus and one with a MUC1 shRNA were immunoblotted with the indicated antibodies. (FIG. 14E) The indicated MCF-7 cells were treated with […] apigenin for 3 d. Viable cell number was determined by the MTS assay. The results (mean+SD of 3 determinations) are expressed as percentage of control growth in the presence of DMSO.

MUC1-C = biological target: T2, MUC1-C (Homo sapiens, UniProt P15941); experiment: Immunoblot of MUC1-C levels in MCF-10A cells (flavones); format: cell-based; design: endogenous in cells; details: 50 to 100 μM, 3 d then additional 3 d
T2 sequence (P15941 1098-1255 limits assumed): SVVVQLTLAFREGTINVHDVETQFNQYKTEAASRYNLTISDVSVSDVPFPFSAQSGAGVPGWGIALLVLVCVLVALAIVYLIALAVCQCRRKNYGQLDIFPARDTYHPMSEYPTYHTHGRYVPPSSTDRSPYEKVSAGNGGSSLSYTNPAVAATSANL
Method: FIGS. 13A-D—Apigenin downregulates MUC1 and confers death of MCF-10A cells. (FIG. 13A) MCF-10A cells were treated with the indicated concentrations of apigenin and baicalein for 3 d, washed and then treated for an additional 3 d. Lysates were immunoblotted with the indicated antibodies. (FIG. 13B) MCF-10A cells were treated with the indicated concentrations apigenin (circles) and baicalein (squares) for 3 d. Viable cell number was determined by the MTS assay. The results (mean+SD of 3 determinations) are expressed as percentage of control growth in the presence of DMSO. (FIG. 13C) MCF-10A cells were treated with DMSO, 75 μM apigenin or 75 μM baicalein for 3 d. Lysates were subjected to immunoblotting with the indicated antibodies. (FIG. 13D) MCF-10A cells were treated with DMSO, 75 μM apigenin or 75 μM baicalein for 3 d, stained with propidium iodide and analyzed by flow cytometry.

Compound | Kd (His-MUC1-CD; His-tagged MUC1-CD immobilized on BIAcore sensor chip, peptide injected at 10 μM, 1:1 binding model, read-out: dissociation constant (Kd)) [µM] | inhibition (FIGS. 17A-B) [1] | MUC1 mRNA levels (MUC1) | MUC1-C protein in the nucleus (MUC1) | MUC1-C protein in whole cell lysates (MUC1) | MUC1-C levels (MUC1-C) | binding to His-MUC1-CD (His-MUC1-CD; BIAcore, data not shown)
CC[C@H](C)[C@H](NC(=O)[C@H](CC(=O)O)NC(=O)[C@H](CC(C)C)NC(=O)[C@H](CCC(N)=O)NC(=O)CNC(=O)[C@H](Cc1ccc(O)cc1)NC(=O)[C@H](CC(N)=O)NC(=O)[C@H](CCCCN)NC(=O)[C@H](CCCNC(=N)N)NC(=O)[C@H](CCCNC(=N)N)NC(=O)[C@H](CS)NC(=O)[C@H](CCC(N)=O)NC(=O)[C@H](CS)NC(=O)[C@@H](CCCNC(=N)N)NC(=O)[C@@H](CCCNC(=N)N)NC(=O)[C@@H](CCCNC(=N)N)NC(=O)[C@@H](CCCNC(=N)N)NC(=O)[C@@H](CCCNC(=N)N)NC(=O)[C@@H](CCCNC(=N)N)NC(=O)[C@@H](CCCNC(=N)N)NC(=O)[C@@H](CCCNC(=N)N)NC(=O)[C@H](N)CCCNC(=N)N)C(=O)N[C@@H](Cc1ccccc1)C(=O)N1CCC[C@H]1C(=O)O [MUC1/CQC] | 0.03 | – | – | – | – | – | –
O=c1cc(-c2ccccc2)oc2cc(O)c(O)c(O)c12 [Baicalein, 5,6,7-trihydroxyflavone, reference compound] | – | did not | no apparent effect | not | not | no apparent effect | –
MUC1/AQA: control peptide in which the CQC motif was altered to AQA (SEQ ID NO: 11) (AQARRKNYGQLDIFP) [reference compound] | – | – | – | – | – | – | no apparent binding
O=c1cc(-c2ccc(O)cc2)oc2cc(O)cc(O)c12 [Apigenin, 4′,5,7-trihydroxyflavone] | – | showed inhibition | downregulation of MUC1 mRNA levels | decreased expression of the MUC1-C protein | decreased expression of the MUC1-C protein | downregulation of MUC1-C levels | –
